# Measured values published in patent US20260240832A1, “USE OF NITROXOLINE COMPOUND IN ENHANCING EFFECT OF ANTIBACTERIAL AGENT” (Jiangsu Yahong Meditech Co., Ltd., priority 2022, published 2026).
# Legend:
# [1] = tested on: carbapenem-resistant Acinetobacter baumannii; assay: Chessboard microbroth dilution MIC/FIC, compound 1 in combination with polymyxin; format: cell-based; conditions: for Polymyxin MIC in combination: with compound 1
# Source text: This experiment is designed to determine the minimum inhibitory concentration (MIC) of compound 1 in combination with polymyxin against carbapenem-resistant Acinetobacter baumannii and to calculate the fractional inhibitory concentration (FIC) index.
# (§1) Test bacteria: 10 strains of carbapenem-resistant Acinetobacter baumannii are clinically isolated strains, and are provided by Shanghai Junji Medical Laboratory Co., Ltd.
# (§2) According to the recommendation of the Clinical and Laboratory Standards Institute (CLSI), the microbroth dilution method designed by the chessboard method was used to determine the minimum inhibitory concentration (MIC) of compound 1 in combination with polymyxin against the above strains, and the fractional inhibitory concentration (FIC) index was calculated.
# (§3) Compound 1 was dissolved in dimethyl sulfoxide to obtain a stock solution I with a concentration of 51200 mg/L. The stock solution I was subjected to 1:1 gradient dilution with dimethyl sulfoxide to obtain a dilution solution with a concentration range of 51200 to 25 mg/L. The corresponding concentrations were added to sterile water for 100-fold dilution to obtain working solution I with a concentration range of 512 to 0.25 mg/L.
# Polymyxin was dissolved in sterile water to obtain a stock solution with a concentration of 5120 mg/L. The polymyxin stock solution was subjected to 1:1 gradient dilution with sterile water to obtain a working solution II with a concentration range of 512 to 0.25 mg/L.
# (§4) According to the method in Example 1, a drug sensitive plate was prepared with working solution I and working solution II, and the specific process will not be repeated here.
# (§5) (2) The culture medium of the bacterial solution: Cation-Adjusted Mueller-Hinton Broth (CAMHB), a product of BBL, USA, batch number 9015952.
# (§6) (3) Formulation method of bacterial solution: According to the direct colony suspension method, the test bacteria cultured overnight were prepared into a 0.5 McFarland turbidity tube using physiological saline. Then, the resulting solution was dilute 100 times with the above culture medium. 100 μL of the resulting bacterial solution was mixed well with the solution (100 μL) in each well of the drug sensitivity plate, and the final inoculation amount was 10^5 CFU/mL.
# (§7) (4) Culture conditions: Culturing at 35±2° C. for 20 hours in air.
# (§8) (1) The experimental results were determined according to the standard of CLSI 2020 M100 30th edition.
# (§9) wherein: FIC≤0.5 indicates synergistic effect; 0.5<FIC≤1.0 indicates additive effect; 1<FIC≤2.0 indicates irrelevant effect; and FIC>2 indicates antagonistic effect.
# [2] = tested on: carbapenem-resistant Acinetobacter baumannii; assay: Chessboard microbroth dilution MIC/FIC, compound 2 in combination with polymyxin; format: cell-based; conditions: for Polymyxin MIC in combination: with compound 2
# Source text: This experiment is designed to determine the minimum inhibitory concentration (MIC) of compound 2 in combination with polymyxin against carbapenem-resistant Acinetobacter baumannii and to calculate the fractional inhibitory concentration (FIC) index.
# as §1
# as §2, with “2” for “1”
# as §3, with “Compound 2” for “Compound 1”
# Polymyxin was dissolved in sterile water to obtain a stock solution with a concentration of 5120 mg/L. The […] stock solution was subjected to 1:1 gradient dilution with sterile water to obtain a working solution II with a concentration range of 512 to 0.25 mg/L.
# as §4, §5, §6, §7, §8, §9
substance,measurement,setting,value
polymyxin E [reference compound],Polymyxin MIC alone,[1]; strain 18-J11-001,0.25 mg/L
same,Polymyxin MIC in combination,[1]; strain 18-J11-001,0.06 mg/L
same,Polymyxin MIC alone,[1]; strain 18-J11-002,0.25 mg/L
same,Polymyxin MIC in combination,[1]; strain 18-J11-002,0.06 mg/L
same,Polymyxin MIC alone,[1]; strain 18-J11-034,0.5 mg/L
same,Polymyxin MIC in combination,[1]; strain 18-J11-034,0.125 mg/L
same,Polymyxin MIC alone,[1]; strain 18-J11-097,0.25 mg/L
same,Polymyxin MIC in combination,[1]; strain 18-J11-097,0.06 mg/L
same,Polymyxin MIC alone,[1]; strain 18-J15-030,0.5 mg/L
same,Polymyxin MIC in combination,[1]; strain 18-J15-030,0.125 mg/L
same,Polymyxin MIC alone,[1]; strain 18-J21-095,0.25 mg/L
same,Polymyxin MIC in combination,[1]; strain 18-J21-095,0.06 mg/L
same,Polymyxin MIC alone,[1]; strain 18-J24-015,0.5 mg/L
same,Polymyxin MIC in combination,[1]; strain 18-J24-015,0.125 mg/L
same,Polymyxin MIC alone,[1]; strain 18-J24-033,0.5 mg/L
same,Polymyxin MIC in combination,[1]; strain 18-J24-033,0.125 mg/L
same,Polymyxin MIC alone,[1]; strain 18-J40-021,1 mg/L
same,Polymyxin MIC in combination,[1]; strain 18-J40-021,0.125 mg/L
same,Polymyxin MIC alone,[1]; strain 18-J51-052,0.5 mg/L
same,Polymyxin MIC in combination,[1]; strain 18-J51-052,0.125 mg/L
same,Polymyxin MIC alone,[2]; strain 18-J11-001,0.5 mg/L
same,Polymyxin MIC in combination,[2]; strain 18-J11-001,0.125 mg/L
same,Polymyxin MIC alone,[2]; strain 18-J11-002,1 mg/L
same,Polymyxin MIC in combination,[2]; strain 18-J11-002,0.25 mg/L
same,Polymyxin MIC alone,[2]; strain 18-J11-034,0.5 mg/L
same,Polymyxin MIC in combination,[2]; strain 18-J11-034,0.25 mg/L
same,Polymyxin MIC alone,[2]; strain 18-J11-097,0.5 mg/L
same,Polymyxin MIC in combination,[2]; strain 18-J11-097,0.125 mg/L
same,Polymyxin MIC alone,[2]; strain 18-J15-030,0.5 mg/L
same,Polymyxin MIC in combination,[2]; strain 18-J15-030,0.25 mg/L
same,Polymyxin MIC alone,[2]; strain 18-J21-095,0.5 mg/L
same,Polymyxin MIC in combination,[2]; strain 18-J21-095,0.25 mg/L
same,Polymyxin MIC alone,[2]; strain 18-J24-015,1 mg/L
same,Polymyxin MIC in combination,[2]; strain 18-J24-015,0.25 mg/L
same,Polymyxin MIC alone,[2]; strain 18-J24-033,1 mg/L
same,Polymyxin MIC in combination,[2]; strain 18-J24-033,0.125 mg/L
same,Polymyxin MIC alone,[2]; strain 18-J40-021,1 mg/L
same,Polymyxin MIC in combination,[2]; strain 18-J40-021,0.25 mg/L
same,Polymyxin MIC alone,[2]; strain 18-J51-052,1 mg/L
same,Polymyxin MIC in combination,[2]; strain 18-J51-052,0.25 mg/L
